Patent publication US20100316590A1, “COMPOSITIONS AND METHODS RELATED TO POLOXAMER COPOLYMER MEMBRANE SEALANT” (THE BOARD OF REGENTS OF THE UNIVERSITY OF TEXAS SYSTEM, priority 2009, published 2010)

System: SH-SY5Y human neuroblastoma cells

Row | Substance | reduction in cell viability of cells treated with P188 alone compared to untreated controls | toxicity of poloxamer on its own to the cells compared to untreated controls
1 | poloxamer 188 [Poloxamer P188] | not statistically significant | 
2 | poloxamer 407 [Poloxamer P407] |  | non-toxic
